Measurements reported in patent publication US8486962B2, “Antifungal agents” (F2G Ltd., priority 2005, dated 2013).
Converted amounts (≈) assume the structure as drawn. Where two headings read alike, the source gives them in different places.

Experiments:
Type in all cases: cell-based
Aspergillus niger = experiment: MIC, YAG medium, Aspergillus niger; conditions: YAG medium; for MIC: Aspergillus niger
Experimental: (§1) Measurement of Minimum Inhibitory Concentrations (MICs)
(§2) Between 1 and 5 mgs of compound were accurately weighed out into a sterile Eppendorf tube. The compound was dissolved in DMSO to give a solution containing 5 mg/ml. Tubes were stored at −20° C. until required.
(§3) On the day of testing thawed solutions were vortex mixed to ensure homogeneity. 30 μl of solution was removed and added to 570 μl of sterile water in a separate sterile Eppendorf. The thoroughly mixed solution was used to prepare a series of doubling dilutions in water, in a deep well plate. Eleven replicate plates were prepared using a Minitrak by aspirating 20 μl from each well into eleven clear polystyrene 96 well plates.
(§4) Spores of Aspergillus spp (Aspergillus fumigatus, Aspergillus terreus, Aspergillus niger and Aspergillus flavus) were harvested from cultures grown on Sabarauds agar for 5 days, and resuspended in PBS/Tween 80 to approx 1×10^7 cfu/ml Other filamentous fungi (Fusarium solani, Scedosporium spp., Trichophyton spp., Absidia corymbifera), were grown on Sabarauds agar for 2-10 days and spores/hyphae resuspended in PBS/Tween to give approx 1×10^7 cfU/ml. Candida species (Candida albicans, Candida glabrata, Candida krusei, Candida parapsilosis and Candida tropicalis) were grown on Sabarauds agar, cells were harvested from the agar using a sterile loop and resuspended in PBS/Tween 80 to approx 1×10^6 cfu/ml. Each organism suspension was diluted in RPMI medium, containing 2% glucose and 0.135M MOPS buffer (pH7.0) to 2×10^4 cfu/ml for Aspergillus spp and other filamentous fungi and 2×10^3 cfu/ml for yeast. 80 μl of an organism suspension was added to each well of the plate containing drug dilutions.
(§5) This produced MIC plates with a drug range 50-0.05 mg/L and organism inocula of 1-2×10^4 cfu/ml for Aspergillus spp and other filamentous fungi and 1-2×10^3 cfu/ml for yeasts. All plates were incubated for 24-48 hrs at 35° C. Growth was assessed by monitoring the optical density at 485 nm for each well. The MIC of a compound is the lowest drug concentration that inhibits growth of an organism by >80% compared with a drug free control. MICs are recorded as mg/L. Other growth media can be used for susceptibility testing, and the activity of the described compounds can also be assessed in a medium comprising, 1% glucose, 1% ammonium chloride and 0.5% yeast extract (YAG medium). To perform MIC tests in this medium, dilutions of compounds are prepared in microtitre plates as described above. Fungal strains to be tested are grown and harvested in an identical manner to that described above, each organism suspension is then diluted in YAG medium to 2×10^4 cfu/ml for Aspergillus spp and other filamentous fungi and 2×10^3 cfu/ml for yeast. 80 μl of an organism suspension was added to each well of the plate containing drug dilutions. This produced MIC plates with a drug range 50-0.05 mg/L and organism inocula of 1-2×10^4 cfu/ml for Aspergillus spp and other filamentous fungi and 1-2×10^3 cfu/ml for yeasts. All plates were incubated for 24 hrs at 35° C. Growth was assessed by monitoring the optical density at 485 nm for each well. The MIC of a compound is the lowest drug concentration that inhibits growth of an organism by >70% compared with a drug free control. MICs are recorded as mg/L. In cases where the MIC of an organism is […]0.05 mg/L the MIC is repeated using a concentration range of 0.5-0.0005 mg/L. MIC tests in YAG medium have more clear-cut endpoints and have slightly lower MICS than those performed in RPMI medium.
(§6) The following organisms were tested: Aspergillus fumigatus AF293 and Aspergillus fumigatus AF210, Aspergillus niger, Aspergillus terreus, Aspergillus favus, Candida albicans, Candida krusei, Candida tropicalis, Candida glabrata, Candida parapsilosis, Trichophyton rubrum, Trichophyton mentagrophytes, Scedosporium prolificans, Scedosporium apiospermum, Absidia corymbifera, Fusarium solani.

[1] = system: Aspergillus fumigatus AF293; experiment: MIC, YAG medium, Aspergillus fumigatus AF293; conditions: YAG medium; for MIC: Aspergillus fumigatus, AF293, read-out: MIC A Fum. 293
Experimental: as §1, §2, §3, §4, §5, §6

Aspergillus flavus = experiment: MIC, YAG medium, Aspergillus flavus; conditions: YAG medium; for MIC: Aspergillus flavus
Experimental: as §1, §2, §3, §4, §5, §6

Aspergillus terreus = experiment: MIC, YAG medium, Aspergillus terreus; conditions: YAG medium; for MIC: Aspergillus terreus
Experimental: as §1, §2, §3, §4, §5, §6

[2] = system: Aspergillus fumigatus AF210; experiment: MIC, YAG medium, Aspergillus fumigatus AF210; conditions: YAG medium; for MIC: Aspergillus fumigatus, AF210, read-out: MIC A Fum. 210
Experimental: as §1, §2, §3, §4, §5, §6

SMILES | MIC (Aspergillus niger; read-out: MIC A Niger) [µg/mL] | MIC [1] [µg/mL] | MIC (Aspergillus flavus; read-out: MIC A Flavus) [µg/mL] | MIC (Aspergillus terreus; read-out: MIC A Terreus) [µg/mL] | MIC [2] [µg/mL] | MIC (Aspergillus niger; read-out: MIC A Niger 1) [µg/mL] | MIC (Aspergillus flavus; read-out: MIC A Flavus 01) [µg/mL] | MIC (Aspergillus terreus; read-out: MIC A Terreus 4) [µg/mL] | MIC A Niger 1 (Aspergillus niger) [µg/mL] | MIC A Fum. 293 [1] [µg/mL] | MIC A Flavus 01 (Aspergillus flavus) [µg/mL] | MIC A Terreus 4 (Aspergillus terreus) [µg/mL] | MIC A Fum. 210 [2] [µg/mL]
O=C(Nc1ccc(Cl)cc1)C(=O)c1c(-c2cccnc2)cc2ccccn12 [Example 197, N-(4-Chloro-phenyl)-2-oxo-2-(2-pyridin-3-yl-indolizin-3-yl)-acetamide] |  | 3.1 (≈ 8.25 µM) |  |  | 3.1 (≈ 8.25 µM) | 0.8 (≈ 2.13 µM) | 0.4 (≈ 1.06 µM) | 0.2 (≈ 0.532 µM) |  |  |  |  | 
COc1ccc(NC(=O)C(=O)c2c(-c3cccnc3)cc3ccccn23)cc1 [Example 147, N-(4-Methoxy-phenyl)-2-oxo-2-(2-pyridin-3-yl-indolizin-3-yl)-acetamide] |  | 12.5 (≈ 33.7 µM) |  |  | 6.25 (≈ 16.8 µM) | 0.1 (≈ 0.269 µM) | 0.1 (≈ 0.269 µM) | 3.1 (≈ 8.35 µM) |  |  |  |  | 
CN(C)C(=O)c1ccc(NC(=O)C(=O)c2c(-c3ccccc3)cc3ccccn23)cc1 [Example 160, N,N-Dimethyl-4-[2-oxo-2-(2-phenyl-indolizin-3-yl)-acetylamino]-benzamide] |  | 50 (≈ 122 µM) |  |  | 50 (≈ 122 µM) | 0.4 (≈ 0.972 µM) | 3.1 (≈ 7.53 µM) | 50 (≈ 122 µM) |  |  |  |  | 
Cc1ccc(NC(=O)C(=O)c2c(-c3ccco3)cc3ccccn23)cc1 [Example 168, 2-(2-Furan-2-yl-indolizin-3-yl)-2-oxo-N-p-tolyl-acetamide] |  | 1.6 (≈ 4.65 µM) |  |  | 3.1 (≈ 9 µM) | 0.4 (≈ 1.16 µM) | 0.4 (≈ 1.16 µM) | 1.6 (≈ 4.65 µM) |  |  |  |  | 
COC(=O)c1ccc(OC(=O)C(=O)c2c(-c3ccccc3)cc3ccccn23)cc1 [Example 177, 4-[2-Oxo-2-(2-phenyl-indolizin-3-yl)-acetoxy]-benzoic acid methyl ester] |  | 50 (≈ 125 µM) |  |  | > 50 | 6.25 (≈ 15.6 µM) | > 50 | 6.25 (≈ 15.6 µM) |  |  |  |  | 
O=C(NCc1ccccc1)C(=O)c1c(-c2ccccc2)cc2ccccn12 [Example 182, N-Benzyl-2-oxo-2-(2-phenyl-indolizin-3-yl)-acetamide] |  | > 50 |  |  | > 50 | > 50 | > 50 | 0.2 (≈ 0.564 µM) |  |  |  |  | 
COc1ccc(NC(=O)C(=O)c2c(-c3ccccc3)cc3c(C)cccn23)cn1 [Example 194, N-(6-Methoxoy-pyridin-3-yl)-2-(8-methyl-2-phenyl-indolizin-3-yl)-2-oxo-acetamide] |  |  |  |  |  |  |  |  | >50 | >50 | >50 | 25 (≈ 64.9 µM) | >50
O=C(C(=O)N1CCCCCC1)c1c(-c2ccccc2)cc2ccccn12 [Example 301, 1-Azepan-1-yl-2-(2-phenyl-indolizin-3-yl)-ethane-1,2-dione] | 25 (≈ 72.2 µM) | 50 (≈ 144 µM) | 50 (≈ 144 µM) | 12.5 (≈ 36.1 µM) | 25 (≈ 72.2 µM) |  |  |  |  |  |  |  | 
CN(C)c1ccc(NC(=O)C(=O)c2c(-c3cccnc3)cc3ccccn23)cc1 [Example 230, N-(4-Dimethylamino-phenyl)-2-oxo-2-(2-pyridin-3-yl-indolizin-3-yl)-acetamide] |  | > 50 |  |  | > 50 | 3.1 (≈ 8.06 µM) | 0.1 (≈ 0.26 µM) | 0.2 (≈ 0.52 µM) |  |  |  |  | 
O=C(Nc1ccc(Br)cc1)C(=O)c1c(-c2cccnc2)cc2ccccn12 [Example 214, N-(4-Bromo-phenyl)-2-oxo-2-(2-pyridin-3-yl-indolizin-3-yl)-acetamide] |  | 0.8 (≈ 1.9 µM) |  |  | 0.8 (≈ 1.9 µM) | 0.4 (≈ 0.952 µM) | 0.1 (≈ 0.238 µM) | 0.1 (≈ 0.238 µM) |  |  |  |  | 
O=C(Nc1ccc(F)cc1)C(=O)c1c(-c2cccnc2)cc2ccccn12 [Example 198, N-(4-Fluoro-phenyl)-2-oxo-2-(2-pyridin-3-yl-indolizin-3-yl)-acetamide] |  | 3.1 (≈ 8.63 µM) |  |  | > 50 | 1.6 (≈ 4.45 µM) | 0.8 (≈ 2.23 µM) | 0.8 (≈ 2.23 µM) |  |  |  |  | 

Results, then the compound that gave them:

MIC (Aspergillus niger; read-out: MIC A Niger) [µg/mL] | MIC [1] [µg/mL] | MIC (Aspergillus flavus; read-out: MIC A Flavus) [µg/mL] | MIC (Aspergillus terreus; read-out: MIC A Terreus) [µg/mL] | MIC [2] [µg/mL] | MIC (Aspergillus niger; read-out: MIC A Niger 1) [µg/mL] | MIC (Aspergillus flavus; read-out: MIC A Flavus 01) [µg/mL] | MIC (Aspergillus terreus; read-out: MIC A Terreus 4) [µg/mL] | MIC A Niger 1 (Aspergillus niger) [µg/mL] | MIC A Fum. 293 [1] [µg/mL] | MIC A Flavus 01 (Aspergillus flavus) [µg/mL] | MIC A Terreus 4 (Aspergillus terreus) [µg/mL] | MIC A Fum. 210 [2] [µg/mL] | SMILES
25 (≈ 74.8 µM) | > 50 | > 50 | > 50 | > 50 |  |  |  |  |  |  |  |  | O=C(C(=O)N1CCOCC1)c1c(-c2ccccc2)cc2ccccn12 [Example 300, 1-Morpholin-4-yl-2-(2-phenyl-indolizin-3-yl)-ethane-1,2-dione]
 | 0.8 (≈ 1.93 µM) |  |  | 0.8 (≈ 1.93 µM) | 0.4 (≈ 0.967 µM) | 0.05 (≈ 0.121 µM) | 0.1 (≈ 0.242 µM) |  |  |  |  |  | COc1ccc2cc(-c3ccccc3)c(C(=O)C(=O)Nc3ccc(N(C)C)cc3)n2c1 [Example 242, N-(4-Dimethylamino-phenyl)-2-(6-methoxy-2-phenyl-indolizin-3-yl)-2-oxo-acetamide]
 | > 50 |  |  | > 50 | 6.25 (≈ 16.3 µM) | > 50 | > 50 |  |  |  |  |  | NC(=O)c1ccc(NC(=O)C(=O)c2c(-c3ccccc3)cc3ccccn23)cc1 [Example 161, 4-[2-Oxo-2-(2-phenyl-indolizin-3-yl)-acetylamino]-benzamide]
 | 0.8 (≈ 2.13 µM) |  |  | 0.8 (≈ 2.13 µM) | 0.05 (≈ 0.133 µM) | 0.1 (≈ 0.267 µM) | 0.05 (≈ 0.133 µM) |  |  |  |  |  | O=C(Nc1ccccc1Cl)C(=O)c1c(-c2ccccc2)cc2ccccn12 [Example 207, N-(2-Chloro-phenyl)-2-oxo-2-(2-phenyl-indolizin-3-yl)-acetamide]
 | 25 (≈ 62.3 µM) |  |  | 25 (≈ 62.3 µM) | 3.1 (≈ 7.72 µM) | 0.4 (≈ 0.996 µM) | 1.6 (≈ 3.99 µM) |  |  |  |  |  | COc1ccc(NC(=O)C(=O)c2c(-c3ccncc3)cc3ccccn23)c(OC)c1 [Example 172, N-(2,4-Dimethoxy-phenyl)-2-oxo-2-(2-pyridin-4-yl-indolizin-3-yl)-acetamide]
 | > 50 |  |  | > 50 | 3.1 (≈ 7.72 µM) | > 50 | > 50 |  |  |  |  |  | COc1ccc(NC(=O)C(=O)c2c(-c3ccccn3)cc3ccccn23)c(OC)c1 [Example 176, N-(2,4-Dimethoxy-phenyl)-2-oxo-2-(2-pyridin-2-yl-indolizin-3-yl)-acetamide]
 | > 50 |  |  | > 50 | > 50 | > 50 | 1.6 (≈ 4.33 µM) |  |  |  |  |  | Cc1ccc(NC(=O)C(=O)c2c(-c3cccnc3)cc3ccc(C)cn23)cc1 [Example 199, 2-(6-Methyl-2-pyridin-3-yl-indolizin-3-yl)-2-oxo-N-p-tolyl-acetamide]
